Measurements: US6806230B1, “Pyrimidine derivatives and herbicides containing them” (Kumiai Chemical Industry Co., Ltd., priority 1999, dated 2004)

Tests used:
Assay type in all cases: in vivo
barnyard grass (Eo) [1] = experiment: Test Example 1: herbicidal effects by flooded paddy field treatment; conditions: dose 100 gai/10a, examined on 21st day after treatment, index 0-5 per Table 44;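 also: 0-5 growth inhibition grade; 5 = over 90%; 4 = 70-90%; 3 = 50-70%; 2 = 30-50%; 1 = 10-30%; 0 = under 10%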
Procedure, shortened: (§1)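 Herbicidal effect is a graded score assigned 21 days after treatment. Application was one day after sowing into flooded (3 cm) puddled paddy soil, with diluted wettable powder dropped onto the water at 100 g active ingredient per 10 ares. Plants were kept in a greenhouse.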

monochoria (Mo) [2] = experiment: as above; conditions: dose 100 gai/10a, examined on 21st day after treatment, index 0-5 per Table 44
Procedure, shortened: as §1

barnyard grass (Ec) [3] = experiment: Test Example 2: herbicidal effects by upland soil treatment; parameters: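 0-5 growth inhibition grade; 5 = over 90%; 4 = 70-90%; 3 = 50-70%; 2 = 30-50%; 1 = 10-30%; 0 = under 10%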; conditions: dose 100 g active ingredient per 10 ares, examined on the 21st day after treatment, standards of Table 44
Procedure, shortened: (§2)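 Pre-emergence test: barnyard grass and green foxtail sown in upland soil, then soil surface sprayed with wettable-powder formulation at 100 g active ingredient per 10 ares (100 l per 10 ares). Grown in greenhouse; herbicidal effect scored on a rating scale 21 days after treatment.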

green foxtail (Se) = experiment: as above; conditions: dose 100 g active ingredient per 10 ares, examined on the 21st day after treatment, standards of Table 44;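 also: 0-5 growth inhibition grade; 5 = over 90%; 4 = 70-90%; 3 = 50-70%; 2 = 30-50%; 1 = 10-30%; 0 = under 10%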
Procedure, shortened: as §2

barnyard grass (Ec) [4] = experiment: Test Example 5: selectivity for a crop plant by soil treatment in upland field; parameters: scale not given here; conditions: dose 25 gai/10a, 21st day after treatment, index per Table 44
Experimental: (§3) In a 80 cm^2 plastic pot, upland soil was filled, and seeds of barnyard grass (Ec), green foxtail (Se), soybean (G1), wheat (Tr) and corn (Ze) were sown and covered with soil. A wettable powder prepared in accordance with Formulation Example 1 was diluted with water and uniformly applied to the soil surface by a small size spray at a rate of 100 l per 10 ares so that the dose of the active ingredient would be 25 g per 10 ares. Thereafter, cultivation was carried out in a green house, and on the 21st day after the treatment, the herbicidal effects were examined in accordance with the standards of Table 44.

corn (Ze) = experiment: as above; parameters: scale not given here; conditions: dose 25 gai/10a, 21st day after treatment, index per Table 44
Experimental: as §3

wheat (Tr) = experiment: as above; parameters: scale not given here; conditions: dose 25 gai/10a, 21st day after treatment, index per Table 44
Experimental: as §3

barnyard grass (Eo) [5] = experiment: Test Example 4: selectivity for a crop plant by flooded paddy field treatment; parameters: scale not given here; conditions: dose 25 g active ingredient per 10 ares, examined on the 21st day after treatment
Procedure, shortened: (§4)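 Scores reflect visual herbicidal effect, graded on a standard scale 21 days after water-surface treatment. The product, a wettable powder diluted with water, went on dropwise at 25 g a.i. per 10 ares one day after flooding to 3 cm. Weeds grew from sown seed and rice was transplanted at second-leaf stage.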

monochoria (Mo) [6] = experiment: as above; parameters: scale not given here; conditions: dose 25 g active ingredient per 10 ares, examined on the 21st day after treatment
Procedure, shortened: as §4

rice (Or) = experiment: as above; parameters: scale not given here; conditions: rice transplanted at second leaf stage, dose 25 g active ingredient per 10 ares, examined on the 21st day after treatment
Procedure, shortened: as §4

soybean (G1) = experiment: Test Example 5: selectivity for a crop plant by soil treatment in upland field; parameters: scale not given here; conditions: dose 25 gai/10a, 21st day after treatment, index per Table 44
Experimental: as §3
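For Herbicidal effect index, Mo in this document: 0-5 growth inhibition grade; 5 = over 90%; 4 = 70-90%; 3 = 50-70%; 2 = 30-50%; 1 = 10-30%; 0 = under 10%.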

Structure (SMILES) | Herbicidal effect index, Eo (barnyard grass (Eo) [1]) | Herbicidal effect index, Mo (monochoria (Mo) [2]) | herbicidal effects, Ec (barnyard grass) (barnyard grass (Ec) [3]) | herbicidal effects, Se (green foxtail) (green foxtail (Se)) | Ec (herbicidal effect index) (barnyard grass (Ec) [4]) | Ze (herbicidal effect index on crop) (corn (Ze)) | Tr (herbicidal effect index on crop) (wheat (Tr)) | Eo (herbicidal effects, index) (barnyard grass (Eo) [5]) | Mo (herbicidal effects, index) (monochoria (Mo) [6]) | Or (effect on crop plant rice, index) (rice (Or)) | Gl (herbicidal effect index on crop) (soybean (G1))
CC(C(=O)N(C)C(c1cncnc1C(F)(F)F)C(C)C)c1ccc(Cl)cc1 (mixture of isomers) [Compound 1-71] | 5 | 5 | 5 | 5 | 5 | 0 | 3 | – | – | – | –
CC(C)C(c1cncnc1C(F)(F)Cl)N(C)C(=O)Cc1ccccc1 (racemic) [Compound 1-15] | 5 | 5 | 5 | 5 | 5 | 1 | 1 | – | – | – | –
Cc1ccc(CC(=O)N(C)C(c2cncnc2C(F)(F)F)C(C)C)cc1 (racemic) [Compound 1-23] | 5 | 5 | 5 | 5 | 5 | 1 | 2 | 5 | 5 | 1 | –
CCC(c1cncnc1C(F)(F)F)N(C)C(=O)Cc1ccc(F)cc1 (racemic) [Compound 1-33] | 5 | 5 | 5 | 5 | 4 | 1 | 2 | 5 | 5 | 1 | 0
CC(C)C(c1cncnc1C(F)(F)F)N(C)C(=O)Cc1ccc(Cl)c(Cl)c1 (racemic) [Compound 1-45] | 5 | 5 | 5 | 5 | 4 | 0 | 2 | 5 | 5 | 0 | 0
CCCN(C(=O)Cc1ccc(Cl)cc1)C(c1cncnc1C(F)(F)F)C(C)C (racemic) [Compound 1-49] | 5 | 5 | 5 | 4 | 5 | 3 | 0 | 5 | 5 | 0 | 1
Cc1cccc(CC(=O)N(C)C(c2cncnc2C(F)(F)F)C(C)C)c1 (racemic) [Compound 1-51] | 5 | 5 | 5 | 5 | 5 | 0 | 1 | 5 | 5 | 1 | 0
CC(C)C(c1cncnc1C(F)(F)F)N(C)C(=O)COc1ccccc1 (racemic) [Compound 1-64] | 5 | 5 | 5 | 5 | 4 | 0 | 3 | – | – | – | 2
CC(C)C(c1cncnc1C(F)(F)F)N(C)C(=O)COc1ccc(Cl)cc1 (racemic) [Compound 1-65] | 5 | 5 | 5 | 5 | 5 | 0 | 0 | – | – | – | 0
